Source: patent EP0209430A2, “L-di or tripeptides possessing a biological activity for use in human and veterinary medicines, process for their obtention and medicines containing them” (INSTITUT DE RECHERCHES CHIMIQUES ET BIOLOGIQUES APPLIQUEES …, priority 1985, dated 1987)
≈ marks a conversion by molar mass, not a printed value.

Columns and labels:
Experiment in all cases: MIC (C.M.I.) in agar medium
Format in all cases: cell-based
S. faecalis = conditions: Enterococcus faecalis, ATCC14508, S. faecalis ATCC 14508, inoculum 10^4 à 10^5 bacteria per ml
From the text: (§1) Par exemple, nous décrivons les C.M.I. (concentrations minimales inhibitrices) en µg/ml, obtenues en milieu gélosé pour un inoculum de 10^4 à 10^5 bactéries par millilitre, du composé B 1067.

S. aureus = conditions: Staphylococcus aureus
From the text: as §1

E. Coli = test system: E. Coli
From the text: as §1

Klebsiella p. = Klebsiella p. La 433, inoculum 10^4 à 10^5 bacteria per ml
From the text: as §1

Serratia = Serratia 22.579, inoculum 10^4 à 10^5 bacteria per ml
From the text: as §1

Salmonella E. = Salmonella E. CNCM 57.29, inoculum 10^4 à 10^5 bacteria per ml
From the text: as §1

Structure (SMILES): C[C@H](N)C(=O)N[C@@H](C)P(=O)(O)O [B 1067, Selde l'amino-2-(hydroxyméthyl)-2-propanediol-1,3 avec l'acide L-Alanyl-L-(amino-1)-éthylphosphonique]
- MIC (S. faecalis): 32 µg/mL (≈ 163 µM)
- MIC (S. aureus; ATCC63, S. aureus ATCC 63.58 P, inoculum 10^4 à 10^5 bacteria per ml): 32 µg/mL (≈ 163 µM)
- MIC (S. aureus; ATCC29213, S. aureus ATCC 29213, inoculum 10^4 à 10^5 bacteria per ml): 8 µg/mL (≈ 40.8 µM)
- MIC (S. aureus; S. aureus CNCM 52.149, inoculum 10^4 à 10^5 bacteria per ml): 32 µg/mL (≈ 163 µM)
- C.M.I. (E. Coli; E. Coli CNCM 53.126, inoculum 10^4 à 10^5 bacteria per ml): 0,25 µg/ml
- MIC (E. Coli; Escherichia coli, E. Coli CNCM 54.8, inoculum 10^4 à 10^5 bacteria per ml): 0.25 µg/mL (≈ 1.27 µM)
- MIC (Klebsiella p.): 16 µg/mL (≈ 81.6 µM)
- MIC (Serratia): 32 to 64 µg/mL (≈ 163 to 326 µM)
- MIC (Salmonella E.): 1 µg/mL (≈ 5.1 µM)
